Test results published in PMC7048748, “Anxiolytic Drug FGIN-1-27 Ameliorates Autoimmunity by Metabolic Reprogramming of Pathogenic Th17 Cells” (Scientific Reports, 2020).

Test system: Th17 cells
Test: Lipidomics of Th17 cells
Type: cell-based, mouse
Set-up: key to nCE(16:0) / nCE(18:2) / nDCER(22:0) / nDCER[FA14:0] / nFFA(12:0) / nFFA(14:1) / nFFA(18:4) / nCE(22:0) / nCE(22:6) / nCE(24:1) / nCE[FA14:1] / nCE(12:0) / nCE[FA16:0] / nCE[FA17:0] / nCE[FA18:2] / nCE[FA22:6]: mole percent of each fatty acid within its lipid class
Protocol: Specific cholesterol precursors like desmosterol and oxysterols, such as 7β, 27-dihydroxycholesterol (7β, 27-OHC), have been identified as ligands for RORγt[21],[22] and shown to modulate Th17 differentiation. […] Next, we extended our studies to lipid metabolites and profiled the lipidome of Th17 cells treated with DMSO or FGIN-1-27.
(a) Quantitation of cholesterol esters, triacylglycerols (TAGs), phosphatidylethanolamine (PE) and phosphatidylcholine (PC) in Th17 cells 72 hours after treatment with FGIN-1-27. The error bars represent SD. (b) Heat map showing fatty acid composition (mole percent) for different lipid classes after treatment with FGIN-1-27. (c) Pie charts showing proportions of different fatty acid classes namely PUFAs, MUFAs, ODD and SFAs within the cholesterol esters. (d) Transcript analysis for CD5L 72 hours post treatment with FGIN-1-27. The error bars represent SD.
Th17 cells were differentiated from naïve purified CD4 T cells and treated with either FGIN-1-27 (10 µM) or DMSO during polarization. 10 million cells/treatment were harvested and snap frozen. […] The extracts were concentrated under nitrogen and reconstituted in 0.25 mL of dichloromethane:methanol (50:50) containing 10 mM ammonium acetate. The extracts were placed in vials for infusion-MS analyses, performed on a SelexION equipped Sciex 5500 QTRAP using both positive and negative mode electrospray. Each sample was subjected to 2 analyses, with IMS-MS conditions optimized for lipid classes monitored in each analysis. The 5500 QTRAP was operated in MRM mode to monitor the transitions for over 1,100 lipids from up to 14 lipid classes. Individual lipid species were quantified based on the ratio of signal intensity for target compounds to the signal intensity for an assigned internal standard of known concentration. Lipid class concentrations were calculated from the sum of all molecular species within a class, and fatty acid compositions were determined by calculating the proportion of individual fatty acids within each class.

SMILES: CCCCCCN(CCCCCC)C(=O)Cc1c(-c2ccc(F)cc2)[nH]c2ccccc12 [FGIN-1-27, N, N-di-n-hexyl 2-(4-fluorophenyl) indole-3-acetamide]
- down-regulation of cholesterol esters (72 hours, 10 µM): 5 folds
- reduction in triacylglycerides (TAGs) (72 hours, 10 µM): 2 fold
- MUFA proportion within the cholesterol esters (Fig. 6c pie chart): 39%
- ODD proportion within the cholesterol esters (Fig. 6c pie chart): 10%
- PUFA proportion within the cholesterol esters (Fig. 6c pie chart): 14%
- SFA proportion within the cholesterol esters (Fig. 6c pie chart): 37%
- nCE (Th17 cells, 10 µM): 0.3432
- nCE(12:0) (Th17 cells, 10 µM): 0.3209
- nCE(14:0) (Th17 cells, 10 µM): 7.863
- nCE(14:1) (Th17 cells, 10 µM): 0.8946
- nCE(15:0) (Th17 cells, 10 µM): 6.739
- nCE(16:0) (Th17 cells, 10 µM): 20.165
- nCE(16:1) (Th17 cells, 10 µM): 5.753
- nCE(17:0) (Th17 cells, 10 µM): 3.887
- nCE(18:0) (Th17 cells, 10 µM): 9.753
- nCE(18:1) (Th17 cells, 10 µM): 25.3604
- nCE(18:2) (Th17 cells, 10 µM): 6.676
- nCE(18:3) (Th17 cells, 10 µM): 0.6485
- nCE(18:4) (Th17 cells, 10 µM): 0.0392
- nCE(20:0) (Th17 cells, 10 µM): 0.838
- nCE(20:1) (Th17 cells, 10 µM): 1.913
- nCE(20:2) (Th17 cells, 10 µM): 0.3245
- nCE(20:3) (Th17 cells, 10 µM): 0.8988
- nCE(20:4) (Th17 cells, 10 µM): 3.812
- nCE(20:5) (Th17 cells, 10 µM): 0.1401
- nCE(22:0) (Th17 cells, 10 µM): 0.2674
- nCE(22:1) (Th17 cells, 10 µM): 0.4486
- nCE(22:2) (Th17 cells, 10 µM): 0.3494
- nCE(22:4) (Th17 cells, 10 µM): 0.2548
- nCE(22:5) (Th17 cells, 10 µM): 0.2179
- nCE(22:6) (Th17 cells, 10 µM): 0.5711
- nCE(24:0) (Th17 cells, 10 µM): 0.624
- nCE(24:1) (Th17 cells, 10 µM): 1.24
- nCER (Th17 cells, 10 µM): 0.6286
- nCER(14:0) (Th17 cells, 10 µM): 0.8623
- nCER(16:0) (Th17 cells, 10 µM): 27.3543
- nCER(18:0) (Th17 cells, 10 µM): 2.572
- nCER(18:1) (Th17 cells, 10 µM): 0.1145
- nCER(20:0) (Th17 cells, 10 µM): 2.068
- nCER(20:1) (Th17 cells, 10 µM): 0.05342
- nCER(22:0) (Th17 cells, 10 µM): 7.074
- nCER(22:1) (Th17 cells, 10 µM): 0.4579
- nCER(24:0) (Th17 cells, 10 µM): 30.2198
- nCER(24:1) (Th17 cells, 10 µM): 28.2356
- nCER(26:0) (Th17 cells, 10 µM): 0.4655
- nCER(26:1) (Th17 cells, 10 µM): 0.5227
- nCER[FA14:0] (Th17 cells, 10 µM): 0.8623
- nCER[FA16:0] (Th17 cells, 10 µM): 27.3543
- nCER[FA18:0] (Th17 cells, 10 µM): 2.572
- nCER[FA18:1] (Th17 cells, 10 µM): 0.1145
- nCER[FA20:0] (Th17 cells, 10 µM): 2.068
- nCER[FA20:1] (Th17 cells, 10 µM): 0.05342
- nCER[FA22:0] (Th17 cells, 10 µM): 7.074
- nCER[FA22:1] (Th17 cells, 10 µM): 0.4579
- nCER[FA24:0] (Th17 cells, 10 µM): 30.2198
- nCER[FA24:1] (Th17 cells, 10 µM): 28.2356
- nCER[FA26:0] (Th17 cells, 10 µM): 0.4655
- nCER[FA26:1] (Th17 cells, 10 µM): 0.5227
- nCE[FA12:0] (Th17 cells, 10 µM): 0.3209
- nCE[FA14:0] (Th17 cells, 10 µM): 7.863
- nCE[FA14:1] (Th17 cells, 10 µM): 0.8946
- nCE[FA15:0] (Th17 cells, 10 µM): 6.739
- nCE[FA16:0] (Th17 cells, 10 µM): 20.165
- nCE[FA16:1] (Th17 cells, 10 µM): 5.753
- nCE[FA17:0] (Th17 cells, 10 µM): 3.887
- nCE[FA18:0] (Th17 cells, 10 µM): 9.753
- nCE[FA18:1] (Th17 cells, 10 µM): 25.3604
- nCE[FA18:2] (Th17 cells, 10 µM): 6.676
- nCE[FA18:3] (Th17 cells, 10 µM): 0.6485
- nCE[FA18:4] (Th17 cells, 10 µM): 0.0392
- nCE[FA20:0] (Th17 cells, 10 µM): 0.838
- nCE[FA20:1] (Th17 cells, 10 µM): 1.913
- nCE[FA20:2] (Th17 cells, 10 µM): 0.3245
- nCE[FA20:3] (Th17 cells, 10 µM): 0.8988
- nCE[FA20:4] (Th17 cells, 10 µM): 3.812
- nCE[FA20:5] (Th17 cells, 10 µM): 0.1401
- nCE[FA22:0] (Th17 cells, 10 µM): 0.2674
- nCE[FA22:1] (Th17 cells, 10 µM): 0.4486
- nCE[FA22:2] (Th17 cells, 10 µM): 0.3494
- nCE[FA22:4] (Th17 cells, 10 µM): 0.2548
- nCE[FA22:5] (Th17 cells, 10 µM): 0.2179
- nCE[FA22:6] (Th17 cells, 10 µM): 0.5711
- nCE[FA24:0] (Th17 cells, 10 µM): 0.624
- nCE[FA24:1] (Th17 cells, 10 µM): 1.24
- nDAG (Th17 cells, 10 µM): 2.149
- nDAG(12:0/16:0) (Th17 cells, 10 µM): 0.1725
- nDAG(12:0/18:0) (Th17 cells, 10 µM): 0.3066
- nDAG(12:0/18:1) (Th17 cells, 10 µM): 0.3287
- nDAG(12:0/18:2) (Th17 cells, 10 µM): 0.07889
- nDAG(14:0/14:0) (Th17 cells, 10 µM): 0.8017
- nDAG(14:0/16:0) (Th17 cells, 10 µM): 9.103
- nDAG(14:0/16:1) (Th17 cells, 10 µM): 1.239
- nDAG(14:0/18:1) (Th17 cells, 10 µM): 2.636
- nDAG(14:0/18:2) (Th17 cells, 10 µM): 0.1578
- nDAG(14:0/18:3) (Th17 cells, 10 µM): 0.01025
- nDAG(14:0/20:0) (Th17 cells, 10 µM): 0.2618
- nDAG(14:0/20:4) (Th17 cells, 10 µM): 0.02818
- nDAG(14:0/22:6) (Th17 cells, 10 µM): 0.05137
- nDAG(14:1/16:0) (Th17 cells, 10 µM): 0.2729
- nDAG(14:1/18:1) (Th17 cells, 10 µM): 0.217
- nDAG(15:0/18:1) (Th17 cells, 10 µM): 0.2893
